Results on 30 compounds are retold here after ChEMBL document CHEMBL1140386, “Pharmacophore-based design of HIV-1 integrase strand-transfer inhibitors” (J Med Chem, 2005).

Experiment [1] has as its target T1, Human immunodeficiency virus type 1 integrase (Human immunodeficiency virus 1, UniProt Q7ZJM1).
Description: Strand transfer inhibitory activity against HIV-1 integrase
For experiment [2], the system named is MT4. Description: Selectivity index was measured by the ratio of CC50/EC50. The experiment is classed as functional.
For experiment [3], the target named is T1, Human immunodeficiency virus type 1 integrase. As to the kind of experiment: In vitro concentration required to inhibit the overall HIV-1 integrase strand transfer.
Experiment [4] has the same target. As to the kind of experiment: In vitro concentration required to inhibit the HIV-1 integrase strand transfer.
Experiment [5] relates to MT4. Description: Cytotoxic concentration required to reduce MT-4 cell viability. The experiment is classed as functional. As to conditions: Homo sapiens.
Experiment [6] concerns Human immunodeficiency virus 1. As to the kind of experiment: Effective concentration required to reduce HIV-1-induced cytopathic effect in MT-4 cells. In kind it is functional, organism-based. Particulars: Human immunodeficiency virus 1, MT4.
Experiment [7] has as its target T1, Human immunodeficiency virus type 1 integrase. As to the kind of experiment: In vitro concentration required to inhibit the HIV-1 integrase 3'-processing.

Each structure is given as a SMILES string. A value given as a limit tells only on which side of the number the result lay.

T1 sequence (Q7ZJM1 whole entry): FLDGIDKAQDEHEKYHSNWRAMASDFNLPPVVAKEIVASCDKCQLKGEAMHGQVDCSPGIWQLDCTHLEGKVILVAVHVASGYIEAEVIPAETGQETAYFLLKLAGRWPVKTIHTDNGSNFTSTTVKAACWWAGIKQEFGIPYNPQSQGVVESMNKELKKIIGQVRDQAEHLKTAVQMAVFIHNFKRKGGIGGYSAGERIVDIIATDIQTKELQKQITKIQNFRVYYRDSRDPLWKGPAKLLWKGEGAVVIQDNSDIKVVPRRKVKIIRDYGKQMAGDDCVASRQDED

Regarding `O=C(O)C(=O)/C=C(\O)c1ccc(Oc2ccccc2)cc1`, 11400 nM corresponded to half-maximal inhibition in experiment [1] (IC50).
Regarding `O=C(O)C(=O)/C=C(\O)c1cn(Cc2ccccc2)c2ccccc12`, in the experiment with MT4 [2], the Selectivity index was above 4. Also, the IC50 (as a rule, the concentration that inhibits the measured activity by half) in experiment [3] is 20 nM; in experiment [4], 30 nM; in experiment [7], 8280 nM. Also, the CC50 (commonly the concentration giving 50% cytotoxicity) with MT4 [5] was above 78000 nM. Also, it took 19900 nM to reach a half-maximal effect in experiment [6] (EC50).
In experiment [1], `CCCCOC(=O)C(=O)/C=C(\O)c1cccn1Cc1ccc(F)cc1` returned an IC50 of 100000 nM.
Still for that read-out and setting: in the case of `O=C(O)C(=O)/C=C(\O)c1cccc(Cc2ccccc2)c1` it was 10 nM.
As for `CCOC(=O)C(=O)/C=C(\O)c1cn(Cc2ccccc2)c2ccc(OC)cc12`, in the experiment on MT4 [2], the Selectivity index came to 5. Moreover, the IC50 in experiment [3] is 150 nM; in experiment [4] it was 680 nM; in experiment [7], 162000 nM. For the same compound, in the experiment on MT4 [5], the CC50 was 29000 nM. Also, the EC50 (commonly the concentration that produces a half-maximal response) in experiment [6] came to 6070 nM.
As to `O=C(O)C(=O)/C=C(\O)c1cn(Cc2ccccc2)c2ccc(Cl)cc12`, the Selectivity index in the experiment on MT4 [2] stood at 8. The IC50 in experiment [3] was determined as 10 nM; in experiment [4] it was 100 nM; in experiment [7], 970 nM. Moreover, in the experiment on MT4 [5], the CC50 came out at 37200 nM. Also, the midpoint of the response in experiment [6], the EC50, lay at 4780 nM.
As to `COc1ccc(Cc2ccccc2)cc1/C(O)=C/C(=O)C(=O)O`, in experiment [1], the IC50 amounted to 100 nM.
Take `COc1ccc2c(c1)c(/C(O)=C/C(=O)C(=O)O)cn2Cc1ccc(F)cc1`: the Selectivity index in the experiment on MT4 [2] came to 11. Moreover, the IC50 came to 19 nM in experiment [3], 4 nM in experiment [4] and 2710 nM in experiment [7]. In the experiment on MT4 [5], it took 63500 nM to reach half-maximal cytotoxicity (CC50). In experiment [6], the response was half-maximal at 5810 nM (EC50).
As for `O=C(O)C(=O)/C=C(\O)c1ccc(Cc2ccccc2)s1`, the half-maximal inhibitory concentration (IC50) in experiment [1] amounted to 500 nM.
For `COc1ccc2c(c1)c(/C(O)=C/C(=O)C(=O)O)cn2Cc1ccccc1`, the Selectivity index with MT4 [2] was 16. Besides, the IC50 in experiment [3] was 17 nM; in experiment [4] it was 21 nM; in experiment [7], 2160 nM. The compound further displayed a CC50 with MT4 [5] of 86400 nM. The compound further registered an EC50 in experiment [6] of 5320 nM.
In the case of `CCOC(=O)C(=O)/C=C(\O)c1cn(Cc2ccccc2)c2ccc(Cl)cc12`, the Selectivity index in the experiment on MT4 [2] is 8. The concentration for half-maximal inhibition (IC50) in experiment [3] worked out at 220 nM; in experiment [4], 30 nM; in experiment [7] it was 10200 nM. For the same compound, the midpoint of cytotoxicity in the experiment on MT4 [5], the CC50, lay at 34000 nM. In addition, the concentration giving a half-maximal response (EC50) in experiment [6] is 4500 nM.
As for `CCOC(=O)C(=O)/C=C(\O)c1cn(Cc2ccc(F)cc2)c2ccccc12`, the Selectivity index in the experiment with MT4 [2] is 3. In addition, the IC50 in experiment [3] is 1200 nM; in experiment [4], 1500 nM; in experiment [7] it was above 272000 nM. The compound further displayed a CC50 in the experiment on MT4 [5] of 27200 nM. This compound also gave an EC50 in experiment [6] of 9250 nM.
For `COc1ccc(/C(O)=C/C(=O)C(=O)O)cc1Cc1ccccc1`, the IC50 in experiment [1] came out at 150 nM.
The same measure, in the same setting: in the case of `O=C(O)C(=O)/C=C(\O)c1ccsc1Cc1ccccc1` it was 180 nM; in that of `O=C(O)C(=O)/C=C(\O)c1cccc(Cc2cccc(F)c2)c1`, 250 nM.
For `O=C(O)C(=O)/C=C(\O)c1cn(Cc2ccc(F)cc2)c2ccccc12`, the Selectivity index in the experiment with MT4 [2] was above 14. Also, the IC50 in experiment [3] came to 2 nM; in experiment [4], 15 nM; in experiment [7], 5300 nM. Further, the CC50 in the experiment on MT4 [5] was above 74000 nM. Further, a half-maximal effect in experiment [6] (EC50) was put at 5310 nM.
The compound `O=C(O)C(=O)/C=C(\O)c1cccc(Br)c1` showed a half-maximal inhibitory concentration (IC50) in experiment [1] of 2500 nM.
Still for that read-out and setting: under `O=C(O)C(=O)/C=C(\O)c1cc(OCc2ccccc2)cc(OCc2ccccc2)c1` stands 100 nM.
For `CCOC(=O)C(=O)/C=C(\O)c1cn(Cc2ccccc2)c2ccccc12`, the Selectivity index in the experiment with MT4 [2] stood at 8. Besides, the IC50 in experiment [3] was 760 nM; in experiment [4], 5400 nM; in experiment [7] it was above 286000 nM. Further, half-maximal cytotoxicity with MT4 [5] (CC50) was put at 120000 nM. The same compound gave an EC50 in experiment [6] of 14300 nM.
Take `O=C(O)C(=O)/C=C(\O)c1cn(Cc2ccc(F)cc2)c2ccc(Cl)cc12`: the Selectivity index in the experiment on MT4 [2] stood at 19. Moreover, the IC50 in experiment [3] turned out to be 200 nM; in experiment [4], 10 nM; in experiment [7], 1590 nM. The same compound yielded a CC50 in the experiment with MT4 [5] of 53400 nM. Moreover, the EC50 in experiment [6] stood at 2780 nM.
As for `CCOC(=O)C(=O)/C=C(\O)c1cn(Cc2ccc(F)cc2)c2ccc(Cl)cc12`, the Selectivity index with MT4 [2] amounted to 8. Besides, the values for the IC50 in experiment [3], in experiment [4] and in experiment [7] were 390 nM, 70 nM and 11500 nM, respectively. Besides, the CC50 with MT4 [5] amounted to 26500 nM. Also, the EC50 in experiment [6] is 3420 nM.
`COc1cc(Cc2ccccc2)cc(/C(O)=C/C(=O)C(=O)O)c1` yielded an IC50 in experiment [1] of 140 nM.
Same read-out and setting: under `CC(C)OC(=O)C(=O)/C=C(\O)c1cccn1Cc1ccc(F)cc1` stands 100000 nM; under `CCC(=O)C(=O)/C=C(\O)c1c[nH]c2ccc(Cl)cc12`, 6900 nM.
Still for that read-out and setting: under `O=C(O)C(=O)/C=C(\O)c1cccn1Cc1ccccc1` stands 220 nM.
In the case of `CCOC(=O)C(=O)/C=C(\O)c1cn(Cc2ccc(F)cc2)c2ccc(OC)cc12`, the Selectivity index in the experiment with MT4 [2] is 9. Besides, the IC50 in experiment [3] came to 220 nM; in experiment [4], 800 nM; in experiment [7], 131000 nM. In addition, in the experiment with MT4 [5], the CC50 turned out to be 127000 nM. Also, the midpoint of the response in experiment [6], the EC50, lay at 14300 nM.
For `NC(=O)C(=O)Nc1nc(C(=O)NCc2ccc(F)cc2)c(O)c2ncccc12`, the IC50 in experiment [1] was found to be 40 nM.
As to `O=C(NCc1ccc(F)cc1)c1nc(N2CCCCS2(=O)=O)c2cccnc2c1O`, the Selectivity index in the experiment with MT4 [2] came out at 457. In addition, the IC50 in experiment [3] turned out to be 0.5 nM; in experiment [4] it was 2.5 nM; in experiment [7] it was 120 nM. Moreover, in the experiment with MT4 [5], the CC50 turned out to be 2150 nM. The same compound registered an EC50 in experiment [6] of 4.7 nM.
`O=C(O)C(=O)/C=C(\O)c1ccnc2ccccc12` registered a 50% inhibitory concentration (IC50) in experiment [1] of 100000 nM.
Same read-out and setting: in the case of `O=C(/C=C(\O)c1c[nH]c2ccc(Cl)cc12)c1nc[nH]n1` it was 2000 nM.
